Consider one compound from patent publication US20110065749A1, “METHOD AND PHARMACEUTICAL COMPOSITION FOR TREATMENT OF MENTAL DISORDERS” (ACTIVE CO. LTD., priority 2008, published 2011).

Each structure is given as a SMILES string. Structures can show the parent of a compound that is named as a salt.

For data set [1], the system named is nystagmus by experimental disorder of balance function. The settings on record: rabbit experiments; cited from earlier work.
The next data set concerns Alcoholism. Briefly: Case 6: alcoholism patient. In kind it is in vivo, human. From the text: Case 6: Alcoholism Patient was a office worker, who was drinking 1 to 2 liters of beer and 3 to 5 glasses of distilled spirit or whisky with water every day. They were drinking alcohol in daytime on Sundays, and suffering from a complication of liver dysfunction.
Data set [2] has as its system Behavioral and Psychological Symptoms of Dementia. In words: Case 5: behavioral and psychological symptoms of dementia. Type of data set: in vivo, human. The settings on record: 100 mg/day. From the text: Case 5: Effect on Behavioral and Psychological Symptoms of Dementia Patient was a person with dementia, who was irritable and easily excited, and had persecutory delusion.

Data set [3] concerns Attention Deficit Hyperactivity Disorder (ADHD). Briefly: Case 1: ADHD patient treated with Cephadol. Type of data set: in vivo, human. How it is done:
Case 1: Attention Deficit Hyperactivity Disorder (ADHD)
Patient was a person, who had often shown violent behaviors. Quarreling with a bad-mannered person on the road and performing violent acts such as hitting had occurred once or twice a week. […] When they discontinued the medication with 75 mg/day Cephadol®, the symptom returned to the previous state. The effect of Cephadol® appeared in about two days, and the symptom returned to the original state in 5 days after discontinuation of the drug.

The subject of a further data set is depression. Briefly: Case 9: depressed symptoms patient, HAMD. Type of data set: in vivo, human. The settings on record: 75 mg/day. From the text: For evaluation of the state of depression, for example, Hamilton's rating scale for depression (HAMD) is available. The HAMD was developed by Max Hamilton in 1960 for the purpose of measuring the severity of a patient diagnosed with depression (Hamilton, M., Journal of Neurology, Neurosurgery & Psychiatry, 23-56-62 (1960) and Hamilton, M., “Development of rating scale for primary depressive illness”, British Journal of Social and Clinical Psychology, 6: 278-296 (1967)). In view of its high usefulness, it is a representative scale of evaluation for depression, widely used in clinical researches and practices. The 17 item version is used for clinical trials of antidepressants in Japan, whereas the 21 item version and the 24 item version are used in Europe or other countries.
When the severity is calculated using Hamilton's rating scale for depression (HAMD), each item is evaluated with three grades of 0-2, or five grades of 0-4. For example, the case is diagnosed as severe where the point is 20 or higher and, as the point decreases, the symptom is diagnosed as being improved.
Case 9: Depressed Symptoms
Administration to the patient of 75 mg/day Cephadol® reduced the HAMD score from 20 points to 7 points after 3 days.

The next data set relates to Stiff Neck. Briefly: Case 14: seven subjects having stiff neck. Type of data set: in vivo, human. The note with it: two 25 mg tablets two times a day, after two days, all seven subjects. How it is done:
Case 14: Stiff Neck Stiff neck is often observed as a subjective symptom, and is one of the most serious complaints in the daily life. Seven subjects having stiff neck were given two 25 mg tablets of Cephadol® two times a day (after dinner and before sleeping).

In the next data set the test system is Bulimia. In words: Case 7: bulimia (1) patient. In kind it is in vivo, human. The note with it: 150 mg/day. An excerpt: Patient was a person, who had been suffering from bulimia. Antidepressant, antianxiety, and other drugs were all ineffective. […] The effect of Cephadol® appeared in about two days.
Another data set has as its system Alzheimer-Type Dementia. In words: Case 4: Alzheimer-type dementia patient. The settings on record: 50 mg before sleeping, added to donepezil hydrochloride. Type of data set: in vivo, human. An excerpt:
Case 4: Alzheimer-Type Dementia

A further data set concerns Fibromyalgia. In words: Case 16: fibromyalgia (2) patient. In kind it is in vivo, human. An excerpt:
[…] There were persistent systemic malaise, lassitude, depressed mood, sleeplessness, neck stiffness and systemic pain. Their score of depression on Hamilton D scale was 25 to 28. No hematological abnormality was detected. As a result of overall judgment based on examinations including a tender point examination, they were diagnosed as having fibromyalgia. They were unresponsive to tricyclic or tetracyclic antidepressants, SSRIs, SNRIs, and Moclobemide. Then, they continued the treatment with 60 mg/day fluoxetine. […] It was concluded that the onset of their depression was due to the systemic pain, and the depression was improved by the drastic improvement of the systemic pain.

For the compound `OC(CCCN1CCCCC1)(c1ccccc1)c1ccccc1` [Cephadol®, 1,1-diphenyl-4-piperidine-1-ylbuthan-1-ol monohydrochloride], the “emergence of nystagmus by experimental disorder of balance function” value in [1] is on record as “inhibited the emergence of nystagmus by experimental disorder of balance function”. Further, the overdrinking result in the data set on Alcoholism (150 mg/day continued for three months) is on record as “without any emergence of overdrinking”. In addition, the side effects entry is given as “without any side effects” in the data set on Alcoholism (150 mg/day for three months); “no side effects” in data set [2]; “no side effects” in data set [3] (75 mg/day); “There were side effects” in the data set with depression; “no side effects” in the data set with Bulimia. In the data set on Alcoholism (150 mg/day, on the next day), the “impulse to drink alcohol” value was “eliminated their impulse to drink alcohol”. For the same compound, the restlessness and anxiety entry in the data set with Alcoholism (150 mg/day, on the next day) was “eliminated their restlessness and anxiety”. The mental stability result in [2] is “significantly improved mental stability”. Besides, the “nuisance behaviors caused by the persecutory delusion” value in data set [2] was “prevented their nuisance behaviors to other people”. Further, the impulsivity entry in data set [3] (75 mg/day, on day seven) is given as “disappearance of the impulsivity”; in data set [3] (75 mg/day, on day two), “reduction of impulsivity”. Also, the “time until the symptom returned to the original state after discontinuation of the drug” value in [3] (after discontinuation of 75 mg/day) is 5 days. Besides, the HAMD score in the data set with depression (after 3 days, from 20 points) came out at 7 points. In addition, the stiff neck symptom result in the data set on Stiff Neck is “disappearance or a significant improvement of the symptom”. Moreover, the overeating result in the data set on Bulimia (previously two to three times a day) is reported as “significantly improved overeating”. For the same compound, in the data set with Alzheimer-Type Dementia, the “excitation caused by donepezil hydrochloride” value is “reduced the excitation”. Besides, in the data set with Fibromyalgia (100 mg/day added to fluoxetine, 25 to 28 before), the “score of Hamilton D scale” value is on record as 16. Besides, the “neck stiffness and systemic pain” value in the data set on Fibromyalgia (100 mg/day for one week, added to 60 mg/day fluoxetine) is “reduced neck stiffness and systemic pain”. For the same compound, in the data set on Fibromyalgia (100 mg/day, after two weeks), the “activity of daily living” value was “improved drastically”.
